Source: patent US11717531B2, “Preeclampsia” (ASTON UNIVERSITY, priority 2015, dated 2023)

How the values were obtained:
[1] = test system: preeclampsia; conditions: low-dose, started before 16 weeks' gestation, high-risk women; cited from earlier work
[2] = test system: miR-122; experiment: qPCR of miR-122 expression in treated HUVEC; type: cell-based, human; conditions: 24 hours
Experimental: (§1) FIG. 2. MiR-122 and miR-374b are regulated by various agents that regulate sFlt-1 release. HUVEC cells were treated with 10 uM Hemin (A), 2 uM or 20 uM Pravastatin (B) 20 ng/ml VEGF-A (C) or 20 ng/ml VEGF-E (D) for 24 hours. Total RNA of the treated cells was isolated and the expression of miR-122 and miR-374b was measured by quantitative PCR. The relative miR-122 and miR-374b expression was normalized to RNU6.
(§2) FIG. 3. Hmox1 regulates miR-122 and miR-374b expression. HUVEC cells were infected by adenovirus overexpressiong Hmox1 (A) or transfected with siRNA against Hmox1 (B) for 24 hours and the relative expression of miR-122 and miR-374b was measured by qPCR.
(§3) Human umbilical vein endothelial cells (HUVECs) were isolated and cultured in M199 medium as described previously (Bussolati et al, 2001). Experiments were performed on third or fourth passage HUVEC.
(§4) Sample preparation and real-time quantitative PCR was performed as described previously (Cudmore et al., 2007).

[3] = test system: miR-374b; experiment: qPCR of miR-374b expression in treated HUVEC; type: cell-based, human; conditions: 24 hours
Experimental: as §1, §2, §3, §4

[4] = test system: miR-152; experiment: qPCR of miR-152 expression in HUVEC; type: cell-based, human; conditions: growth factor 20 ng/ml, 24 hours
Experimental: FIG. 9 Hypoxia, inflammatory cytokine or angiogenic growth factor stimulation increases microRNA-152 expression in endothelial cells and placental explants. Human placental explants was treated with (A) inflammatory cytokine mix (TNF-α, 20 ng/ml, IFN-γ, 20 ng/ml and IL-1β, 2 ng/ml), (B) hypoxia (1% 02) condition or (C) combination of cytokine mix and hypoxia condition and assayed for miR-152 expression using qPCR. Similarly, HUEVC cells were treated with (D) hypoxia (1% 02) condition, VEGF-E (20 ng/ml, E) or FGF-2 (20 ng/ml, F) for 24 hours and used for qPCR analysis of miR-152 expression. Moreover, overexpression of miR-152 inhibited PlGF release, but not the sFlt-1 and sEng in endothelial cells. HUVECs were electroporated with mimic-152 or control mimic-con. After resting for 24 hours, the transfected cells were treated with vehicle or VEGF-E (20 ng/ml) in the conditioned media. […] Data is shown as mean+SEM and analyzed by Student t-test.
Human umbilical vein endothelial cells (HUVECs) were isolated and cultured in M199 medium as described previously (Bussolati et al, 2001). […] Briefly, human placental villus explants were incubated under stimulation of test substances or hypoxia condition and collected for quantitative PCR of miR-152. […]
as §4

[5] = test system: miR-144; experiment: qPCR of miR-144 expression in treated HUVEC; type: cell-based, human; conditions: hemin 10 uM
Experimental: as §3, §4

[6] = test system: sFlt-1; experiment: sFlt-1 release from HUVEC, ELISA of conditioned media; type: cell-based, human; conditions: 24 hours
Experimental: as §3
Chemically synthesized double-stranded microRNA mimic and single-stranded inhibitor against miR-122 (mi-122 and anti-122) and miR-374b (mi-374b and anti-374b) were purchased from Qiagen and the efficiency was tested by Qpcr (FIG. 6A, B). HUVECs were trypsinized, and 1×10^6 cells were electroporated with ≈0.6 ug mimic-122 or mimic-374b, =3 ug anti-122 or anti-374 or control molecules using electroporation (Amaxa GmbH, Cologne, Germany) as described previously (Cudmore et al., 2007).
Enzyme-linked immunosorbent assay (ELISA) kits for human sFlt-1 was obtained from R&D Systems and performed according to the manufacturer's specifications.
Enzyme-linked immunosorbent assay (ELISA) kits for human sFlt-1, sEng and P1GF were obtained from R&D Systems and performed according to the manufacturer's specifications.

## CC(=O)Oc1ccccc1C(=O)O [aspirin]
[1]
  prevention of PE, severe PE and IUGR: up to 50%

## CC[C@H](C)C(=O)O[C@H]1C[C@H](O)C=C2C=C[C@H](C)[C@H](CC[C@@H](O)C[C@@H](O)CC(=O)O)[C@H]21 [pravastatin]
[2]; pravastatin 2 uM and 20 uM
  induction of miR-122 expression: 3-9 fold
[3]; pravastatin 2 uM and 20 uM
  induction of miR-374b expression: 2.7 fold

## FGF-2: angiogenic growth factor used at 20 ng/ml
[4]
  elevation of miR-152 expression: ~65%

## hemin
[5]
  effect on miR-144 expression: no significant effect
[2]; hemin 10 uM
  increase of miR-122 expression: 20 fold
[3]; hemin 10 uM
  increase of miR-374b expression: 2.7 fold
[6]; hemin 10 uM plus VEGF-E
  recovery of hemin-reduced sFlt-1 release by VEGF-E stimulation: cannot be recovered
[6]; hemin 10 uM
  sFlt-1 release in endothelial cells: decreased

## vascular endothelial growth factor A [VEGF-A]
[2]; growth factor 20 ng/ml
  decrease of miR-122 expression: 47%
[3]; growth factor 20 ng/ml
  reduction of miR-374b expression: 20%
